From a compilation of properties of binary mixtures (doi:10.1021/acs.iecr.0c01496)

Assay: xn = mol fraction of the nth substance listed
Conditions: 101 kPa

CCCC[n+]1ccccc1.[Cl-] + CCCC[n+]1ccccc1.[Br-]
viscosity [mPa·s]
Conditions	398.1 K	403.1 K	408.1 K	413.1 K	418.1 K	423.1 K	428.1 K	433.1 K	438.1 K	443.1 K
x1 = 0.084	–	–	22.9	19.4	16.6	–	12.56	11.09	9.91	8.95
x1 = 0.169	33.5	27.8	23.3	19.7	–	14.63	12.79	11.3	–	9.1
x1 = 0.292	33.8	28.1	23.6	20	17.2	14.84	12.97	–	10.22	9.22
x1 = 0.389	–	28.5	–	20.3	–	15.07	13.18	11.63	10.37	9.35
x1 = 0.469	–	29.1	24.5	20.9	18	15.61	13.69	12.13	–	9.81
x1 = 0.611	–	–	25.1	21.4	18.4	16.03	14.06	12.46	11.15	10.07
x1 = 0.689	–	–	–	21.5	–	16.11	14.13	12.51	11.17	10.08
x1 = 0.785	–	–	–	21.9	18.9	16.43	–	12.76	11.41	10.29
x1 = 0.892	–	–	–	–	–	–	14.84	–	–	10.63

CC[n+]1ccccc1.[Cl-] + CCCC[n+]1ccccc1.[Cl-]
viscosity [mPa·s]
Conditions	x1 = 0.121	x1 = 0.198	x1 = 0.302	x1 = 0.388	x1 = 0.504	x1 = 0.597	x1 = 0.702	x1 = 0.795	x1 = 0.804
363.1 K	–	–	–	–	–	–	–	58.2	57.9
368.1 K	–	–	–	–	–	–	–	47.6	47.5
373.1 K	–	–	–	–	–	–	–	39.3	39.3
378.1 K	–	–	–	–	–	–	–	–	32.7
383.1 K	–	–	–	–	–	–	–	27.4	27.4
388.1 K	–	–	–	–	–	28.8	25.5	23.1	–
393.1 K	–	–	–	–	–	24.4	21.6	19.7	–
398.1 K	–	–	–	25.3	–	20.7	–	16.8	–
403.1 K	–	–	–	21.5	20.1	17.8	15.9	14.53	–
408.1 K	–	–	20.2	18.5	17.4	15.39	13.73	12.63	12.79
413.1 K	–	–	17.5	15.98	15.22	13.41	11.98	–	11.23
418.1 K	17.66	17.21	15.22	13.94	–	11.79	10.54	9.75	9.93
423.1 K	15.42	15.14	13.36	–	11.92	10.44	9.33	8.67	8.86
428.1 K	13.58	13.44	11.83	10.85	10.69	9.32	–	–	7.96
433.1 K	12.06	12.04	10.56	9.69	9.66	–	7.5	7	7.21
438.1 K	10.81	10.88	–	8.73	8.81	7.61	–	6.37	6.58
443.1 K	9.77	9.92	8.64	7.94	–	6.96	6.22	5.84	–

CCCC[n+]1ccccc1.[Cl-] + CC[n+]1ccccc1.[Br-]
viscosity [mPa·s]
Conditions	x2 = 0.104	x2 = 0.193	x2 = 0.313	x2 = 0.408	x2 = 0.484	x2 = 0.604	x2 = 0.64	x2 = 0.694	x2 = 0.797	x2 = 0.894
368.1 K	–	–	–	–	56.3	46	43.6	39.7	–	–
373.1 K	–	–	–	–	47.7	39.5	37.6	34.5	–	–
378.1 K	–	–	–	–	40.7	34.1	32.6	30.1	26	–
383.1 K	–	–	–	38.5	34.8	29.6	28.3	26.3	23	–
388.1 K	–	–	–	32.9	–	25.7	24.7	–	20.4	–
393.1 K	–	36	31.5	28.3	25.9	22.5	–	20.4	–	16.16
398.1 K	–	30.5	27	24.4	22.5	19.7	19	18.01	16.16	14.53
403.1 K	28.4	26.1	23.3	–	19.7	–	16.77	15.99	14.46	13.09
408.1 K	24.4	22.4	20.2	18.5	17.27	15.38	–	14.24	–	11.82
413.1 K	21	–	17.7	16.27	15.24	13.66	–	–	–	10.69
418.1 K	–	16.98	15.51	14.37	13.52	12.2	–	–	10.53	9.7
423.1 K	16.01	14.92	–	12.77	12.04	10.92	10.59	10.27	–	–
428.1 K	14.14	13.22	–	11.41	10.79	–	9.53	–	8.64	8.01
433.1 K	12.59	11.8	10.96	10.25	–	8.86	–	8.41	7.85	7.31
438.1 K	11.29	10.6	9.89	9.26	8.8	–	7.81	7.65	7.17	–
443.1 K	10.22	9.6	8.97	8.42	8.01	7.32	–	6.98	–	6.11

CC[n+]1ccccc1.[Cl-] + CC[n+]1ccccc1.[Br-]
viscosity [mPa·s]
Conditions	403.1 K	408.1 K	413.1 K	418.1 K	423.1 K	428.1 K	433.1 K	438.1 K	443.1 K
x1 = 0.105	12.65	11.56	10.55	9.63	8.8	8.05	7.39	6.82	6.34
x1 = 0.196	12.66	11.53	10.51	–	–	7.97	7.31	6.75	6.27
x1 = 0.303	12.66	–	10.45	9.5	–	–	7.22	6.66	6.2
x1 = 0.387	12.65	–	10.31	9.37	8.55	7.84	7.23	6.69	6.22
x1 = 0.503	12.66	11.37	–	9.28	8.45	7.74	–	6.61	6.15
x1 = 0.613	12.67	11.33	10.19	–	–	7.65	7.05	–	6.08
x1 = 0.688	–	11.3	10.15	9.17	8.33	–	7	6.47	6.02
x1 = 0.803	12.66	11.26	10.08	9.08	8.24	7.52	6.9	6.38	5.94
x1 = 0.885	12.65	11.22	10.02	9.02	–	7.44	6.83	6.32	5.88
